Experimental data: ChEMBL document CHEMBL3044795, “Synthesis and biological evaluation of novel benzoquinones as potential antimicrobial agents” (2013)
Converted amounts (≈) assume the structure as drawn.

Columns and labels:
Format in all cases: functional
[1] = tested on: Bacillus subtilis; test: Antibacterial activity against Bacillus subtilis ATCC 6633 assessed as diamater of growth inhibition zone after 24 hr by agar cup diffusion method
[2] = tested on: Escherichia coli; test: Antibacterial activity against Escherichia coli ATCC 11775 assessed as diamater of growth inhibition zone after 24 hr by agar cup diffusion method
[3] = tested on: Pseudomonas aeruginosa; test: Antibacterial activity against Pseudomonas aeruginosa ATCC 10145 assessed as diamater of growth inhibition zone after 24 hr by agar cup diffusion method
[4] = tested on: Candida albicans; test: Antifungal activity against Candida albicans DSM 70014 assessed as diamater of growth inhibition zone after 48 hr by agar cup diffusion method
[5] = tested on: Staphylococcus aureus; test: Antibacterial activity against Staphylococcus aureus DSM 1104 assessed as growth inhibition after 24 hr by two fold serial dilution method; conditions: DSM 1104, 24 h
[6] = tested on: Bacillus subtilis; test: Antibacterial activity against Bacillus subtilis ATCC 6633 assessed as growth inhibition after 24 hr by two fold serial dilution method; conditions: ATCC 6633, 24 h
[7] = tested on: Escherichia coli; test: Antibacterial activity against Escherichia coli ATCC 11775 assessed as growth inhibition after 24 hr by two-fold serial dilution method; conditions: ATCC 11775, 24 h
[8] = tested on: Pseudomonas aeruginosa; test: Antibacterial activity against Pseudomonas aeruginosa ATCC 10145 assessed as growth inhibition after 24 hr by two-fold serial dilution method; conditions: ATCC 10145, 24 h
[9] = tested on: Pseudomonas aeruginosa; test: Antibacterial activity against Pseudomonas aeruginosa ATCC 10145 assessed as growth inhibition after 24 hr; conditions: ATCC 10145, 24 h
[10] = tested on: Candida albicans; test: Antifungal activity against Candida albicans DSM 70014 assessed as growth inhibition after 48 hr; conditions: DSM 70014, 48 h
[11] = tested on: Escherichia coli; test: Antibacterial activity against Escherichia coli ATCC 11775 assessed as growth inhibition after 24 hr; conditions: ATCC 11775, 24 h
[12] = tested on: Bacillus subtilis; test: Antibacterial activity against Bacillus subtilis ATCC 6633 assessed as growth inhibition after 24 hr; conditions: ATCC 6633, 24 h
[13] = tested on: Staphylococcus aureus; test: Antibacterial activity against Staphylococcus aureus DSM 1104 assessed as growth inhibition after 24 hr; conditions: DSM 1104, 24 h
[14] = tested on: Candida albicans; test: Antifungal activity against Candida albicans DSM 70014 assessed as growth inhibition after 48 hr by two-fold serial dilution method; conditions: DSM 70014, 48 h
[15] = tested on: Staphylococcus aureus; test: Antibacterial activity against Staphylococcus aureus DSM 1104 assessed as diamater of growth inhibition zone after 24 hr by agar cup diffusion method
[16] = tested on: Pseudomonas aeruginosa; test: Ratio of Ampicillin MIC to compound MIC for Pseudomonas aeruginosa ATCC 10145

MIC [5] [mg/L]	MIC [6] [mg/L]	MIC [7] [mg/L]	MIC [8] [mg/L]	MIC [14] [mg/L]	Compound	diameter of the inhibition zone (DIZ) [1] [mm]	diameter of the inhibition zone (DIZ) [2] [mm]	diameter of the inhibition zone (DIZ) [3] [mm]	diameter of the inhibition zone (DIZ) [4] [mm]	MBC [9] [mg/L]	MFC [10] [mg/L]	MBC [11] [mg/L]	MBC [12] [mg/L]	MBC [13] [mg/L]	diameter of the inhibition zone (DIZ) [15] [mm]	Ratio [16]
25 (≈ 53.4 µM)	50 (≈ 107 µM)	100 (≈ 214 µM)	100 (≈ 214 µM)	25 (≈ 53.4 µM)	COc1ccc(/C=N/N=c2\scc(-c3cc(O)ccc3O)n2-c2ccc(Cl)cc2)cc1O	14	13	14	12	100 (≈ 214 µM)	50 (≈ 107 µM)	100 (≈ 214 µM)	100 (≈ 214 µM)	50 (≈ 107 µM)	14	
50 (≈ 120 µM)	50 (≈ 120 µM)	25 (≈ 60.2 µM)	50 (≈ 120 µM)	50 (≈ 120 µM)	COc1ccc(/C=N/N=c2\scc(C3=CC(=O)C=CC3=O)n2-c2ccccc2)cc1	15	16	15	15	50 (≈ 120 µM)	50 (≈ 120 µM)	50 (≈ 120 µM)	50 (≈ 120 µM)	50 (≈ 120 µM)	15	
50 (≈ 112 µM)	50 (≈ 112 µM)	50 (≈ 112 µM)	50 (≈ 112 µM)	50 (≈ 112 µM)	COc1ccc(OC)c(/C=N/N=c2\scc(C3=CC(=O)C=CC3=O)n2-c2ccccc2)c1	15	14	14	15	50 (≈ 112 µM)	50 (≈ 112 µM)	50 (≈ 112 µM)	50 (≈ 112 µM)	50 (≈ 112 µM)	14	
25 (≈ 57.9 µM)	50 (≈ 116 µM)	100 (≈ 232 µM)	100 (≈ 232 µM)	25 (≈ 57.9 µM)	COc1cc(/C=N/N=c2\scc(C3=CC(=O)C=CC3=O)n2-c2ccccc2)ccc1O	15	15	14	12	100 (≈ 232 µM)	50 (≈ 116 µM)	100 (≈ 232 µM)	100 (≈ 232 µM)	50 (≈ 116 µM)	15	
50 (≈ 116 µM)	100 (≈ 232 µM)	50 (≈ 116 µM)	100 (≈ 232 µM)	100 (≈ 232 µM)	COc1ccc(/C=N/N=c2\scc(C3=CC(=O)C=CC3=O)n2-c2ccccc2)cc1O	15	14	16	14	100 (≈ 232 µM)	100 (≈ 232 µM)	50 (≈ 116 µM)	100 (≈ 232 µM)	50 (≈ 116 µM)	14	
12.5 (≈ 27.2 µM)	12.5 (≈ 27.2 µM)	25 (≈ 54.4 µM)	25 (≈ 54.4 µM)	25 (≈ 54.4 µM)	COc1ccc(OC)c(/C=N/N=c2\scc(C3=CC(=O)C=CC3=O)n2-c2ccc(C)cc2)c1	15	14	14	13	50 (≈ 109 µM)	50 (≈ 109 µM)	50 (≈ 109 µM)	25 (≈ 54.4 µM)	25 (≈ 54.4 µM)	16	
50 (≈ 120 µM)	50 (≈ 120 µM)	50 (≈ 120 µM)	50 (≈ 120 µM)	50 (≈ 120 µM)	COc1ccc(/C=N/N=c2\scc(-c3cc(O)ccc3O)n2-c2ccccc2)cc1	15	14	14	12	50 (≈ 120 µM)	50 (≈ 120 µM)	50 (≈ 120 µM)	50 (≈ 120 µM)	50 (≈ 120 µM)	14	
50 (≈ 112 µM)	12.5 (≈ 27.9 µM)	12.5 (≈ 27.9 µM)	12.5 (≈ 27.9 µM)	25 (≈ 55.9 µM)	COc1ccc(OC)c(/C=N/N=c2\scc(-c3cc(O)ccc3O)n2-c2ccccc2)c1	15	18	16	14	25 (≈ 55.9 µM)	50 (≈ 112 µM)	25 (≈ 55.9 µM)	25 (≈ 55.9 µM)	50 (≈ 112 µM)	16	
12.5 (≈ 28.8 µM)	50 (≈ 115 µM)	12.5 (≈ 28.8 µM)	50 (≈ 115 µM)	12.5 (≈ 28.8 µM)	COc1cc(/C=N/N=c2\scc(-c3cc(O)ccc3O)n2-c2ccccc2)ccc1O	16	14	15	15	50 (≈ 115 µM)	25 (≈ 57.7 µM)	25 (≈ 57.7 µM)	50 (≈ 115 µM)	25 (≈ 57.7 µM)	15	
50 (≈ 116 µM)	50 (≈ 116 µM)	12.5 (≈ 29 µM)	50 (≈ 116 µM)	100 (≈ 232 µM)	COc1ccc(/C=N/N=c2\scc(-c3cc(O)ccc3O)n2-c2ccc(C)cc2)cc1	13	15	16	15	50 (≈ 116 µM)	100 (≈ 232 µM)	25 (≈ 57.9 µM)	50 (≈ 116 µM)	50 (≈ 116 µM)	15	
12.5 (≈ 27.1 µM)	12.5 (≈ 27.1 µM)	25 (≈ 54.2 µM)	25 (≈ 54.2 µM)	50 (≈ 108 µM)	COc1ccc(OC)c(/C=N/N=c2\scc(-c3cc(O)ccc3O)n2-c2ccc(C)cc2)c1	17	17	14	14	50 (≈ 108 µM)	50 (≈ 108 µM)	50 (≈ 108 µM)	25 (≈ 54.2 µM)	25 (≈ 54.2 µM)	14	2
25 (≈ 55.9 µM)	50 (≈ 112 µM)	50 (≈ 112 µM)	50 (≈ 112 µM)	50 (≈ 112 µM)	COc1cc(/C=N/N=c2\scc(-c3cc(O)ccc3O)n2-c2ccc(C)cc2)ccc1O	15	14	16	12	100 (≈ 223 µM)	50 (≈ 112 µM)	100 (≈ 223 µM)	50 (≈ 112 µM)	50 (≈ 112 µM)	15	
25 (≈ 55.9 µM)	25 (≈ 55.9 µM)	25 (≈ 55.9 µM)	25 (≈ 55.9 µM)	12.5 (≈ 27.9 µM)	COc1ccc(/C=N/N=c2\scc(-c3cc(O)ccc3O)n2-c2ccc(C)cc2)cc1O	14	14	13	14	50 (≈ 112 µM)	25 (≈ 55.9 µM)	50 (≈ 112 µM)	50 (≈ 112 µM)	50 (≈ 112 µM)	16	2
100 (≈ 221 µM)	50 (≈ 111 µM)	25 (≈ 55.3 µM)	50 (≈ 111 µM)	50 (≈ 111 µM)	COc1ccc(/C=N/N=c2\scc(-c3cc(O)ccc3O)n2-c2ccc(Cl)cc2)cc1	14	14	12	15	50 (≈ 111 µM)	50 (≈ 111 µM)	50 (≈ 111 µM)	50 (≈ 111 µM)	100 (≈ 221 µM)	15	
50 (≈ 104 µM)	50 (≈ 104 µM)	25 (≈ 51.9 µM)	50 (≈ 104 µM)	50 (≈ 104 µM)	COc1ccc(OC)c(/C=N/N=c2\scc(-c3cc(O)ccc3O)n2-c2ccc(Cl)cc2)c1	15	18	16	13	50 (≈ 104 µM)	100 (≈ 207 µM)	50 (≈ 104 µM)	50 (≈ 104 µM)	100 (≈ 207 µM)	13	
50 (≈ 107 µM)	50 (≈ 107 µM)	100 (≈ 214 µM)	100 (≈ 214 µM)	100 (≈ 214 µM)	COc1cc(/C=N/N=c2\scc(-c3cc(O)ccc3O)n2-c2ccc(Cl)cc2)ccc1O	16	15	14	14	100 (≈ 214 µM)	100 (≈ 214 µM)	100 (≈ 214 µM)	50 (≈ 107 µM)	50 (≈ 107 µM)	16	
